Experimental data: patent US8889727B2, “Topical antifungal agent” (Meiji Seika Pharma Co., Ltd., priority 2011, dated 2014)
Converted amounts (≈) assume the structure as drawn.

How the values were obtained:
[1] = test system: T. mentagrophytes ATCC18748; test: Measurement of antifungal activity (MIC, WST8 growth inhibition); format: cell-based; conditions: Trichophyton mentagrophytes, 72 h; 80% growth inhibition concentration; T. mentagrophytes ATCC18748, RPMI1640/MOPS, 28° C., 3 days
Method: (§1) The compounds for evaluation were dissolved in dimethyl sulfoxide (DMSO) and used. As the test medium, RPMI1640 medium containing 0.165 M 3-morpholino propane sulfonic acid (MOPS) was used. As the test strain, T. mentagrophytes ATCC18748 or T. rubrum ATCC10218 was used. 100 μL of the test strain each at a concentration of 1×10^4 conidia/mL was dispensed, mixed with compounds for evaluation on 96 well half area plate so that the concentration of DMSO becomes 1%, and cultured at 28° C. for 3 days (for T. mentagrophytes) or for 4 days (for T. rubrum). Then, 5 μL of Cell Counting Kit8 (WST8) was added and the absorbances at 450 nm and 595 nm was measured as background. Subsequently, they were incubated at 28° C. for 5 hours (for T. mentagrophytes) or overnight (for T. rubrum) to color, and again the absorbances at 450 nm and 595 nm was measured, and then calculated the growth inhibition percentages using the differences from the background, and 80% growth inhibition concentration was regarded as MIC (μg/ml). Measurement of antifungal activity was conducted by the following method. Compounds for evaluation were dissolved in dimethyl sulfoxide (DMSO) and used. As the test medium, RPMI1640 medium containing 0.165 M 3-morpholinopropane sulfonic acid (MOPS) was used. As the test strain, T. mentagrophytes ATCC18748 or T. rubrum ATCC10218 was used. 100 μL of the test strain was dispensed at a concentration of 1×10^4 conidia/mL, mixed with compounds for evaluation on 96 well half area plate so that the concentration of DMSO becomes 1%, and cultured at a culture temperature of 28° C. for 3 days (for T. mentagrophytes) or for 4 days (for T. rubrum). Then, 5 μL of Cell Counting Kit8 (WST8) was added and the absorbances at 450 nm and 595 nm was measured as background. Subsequently, they were incubated at 28° C. for 5 hours (for T. mentagrophytes) or overnight (for T. rubrum), and again measured the absorbances at 450 nm and 595 nm was measured, and then calculated the growth inhibition percentages using the differences from the background, and 80% growth inhibition concentration was regarded as MIC (μg/ml).

T. rubrum ATCC10218 = test: as above; format: cell-based; conditions: Trichophyton rubrum, 96 h; 80% growth inhibition concentration; T. rubrum ATCC10218, RPMI1640/MOPS, 28° C., 4 days
Method: as §1

Row | SMILES | MIC [1] | MIC (T. rubrum ATCC10218) | inhibition of growth at 32 µg/mL [1]
1 | Cc1cc(C)n(-c2ccccc2O)n1 [Example 1, 2-(3,5-Dimethyl-1H-pyrazol-1-yl)phenol] | 2 to 8 µg/mL (≈ 10.6 to 42.5 µM) | 4 to 16 µg/mL (≈ 21.3 to 85 µM) | 
2 | Cc1cc(C(F)(F)F)nn1-c1ccccc1O [Example 5, 2-(5-Methyl-3-trifluoromethyl-1H-pyrazol-1-yl)phenol] | 16 to 32 µg/mL (≈ 66.1 to 132 µM) | 32 to 64 µg/mL (≈ 132 to 264 µM) | 
3 | Oc1ccccc1-n1nc(C(F)(F)F)cc1C(F)(F)F [Example 6, 2-(3,5-Bistrifluoromethyl-1H-pyrazol-1-yl)phenol] | 16 to 32 µg/mL (≈ 54 to 108 µM) | > 64 µg/mL | 
4 | Cc1ccn(-c2ccccc2O)n1 [Example 7, 2-(3-Methyl-1H-pyrazol-1-yl)phenol] | 16 to 32 µg/mL (≈ 91.8 to 184 µM) | > 64 µg/mL | 
5 | Cc1ccnn1-c1ccccc1O [Example 8, 2-(5-Methyl-1H-pyrazol-1-yl)phenol] | 16 to 32 µg/mL (≈ 91.8 to 184 µM) | > 64 µg/mL | 
6 | Cc1nn(-c2ccccc2O)c(C)c1C [Example 9, 2-(3,4,5-Trimethyl-1H-pyrazol-1-yl)phenol] | ≤ 1 µg/mL | ≤ 2 µg/mL | 
7 | CC(C)(C)c1cc(N)n(-c2ccccc2O)n1 [Example 10, 2-(5-Amino-3-tert-butyl-1H-pyrazol-1-yl)phenol] |  | > 64 µg/mL | 50 to 80%
8 | Cc1cc(C)n(-c2cc(Cl)ccc2O)n1 [Example 11, 4-Chloro-2-(3,5-dimethyl-1H-pyrazol-1-yl)phenol] | 16 to 32 µg/mL (≈ 71.9 to 144 µM) | 32 to 64 µg/mL (≈ 144 to 287 µM) | 
9 | Cc1cc(C)n(-c2cccc(Cl)c2O)n1 [Example 12, 2-Chloro-6-(3,5-dimethyl-1H-pyrazol-1-yl)phenol] | 16 to 32 µg/mL (≈ 71.9 to 144 µM) | > 64 µg/mL | 
10 | Cc1nn(-c2ccccc2O)c(C)c1Cl [Example 13, 2-(4-Chloro-3,5-dimethyl-1H-pyrazol-1-yl)phenol] | ≤ 1 µg/mL | 4 to 16 µg/mL (≈ 18 to 71.9 µM) | 
11 | CCc1cc(CC)n(-c2ccccc2O)n1 [Example 14, 2-(3,5-Diethyl-1H-pyrazol-1-yl)phenol] | 2 to 8 µg/mL (≈ 9.25 to 37 µM) | 4 to 16 µg/mL (≈ 18.5 to 74 µM) | 
12 | Cc1cc(C)n(-c2cccc(O)c2O)n1 [Example 15, 3-(3,5-Dimethyl-1H-pyrazol-1-yl)benzene-1,2-diol] | 16 to 32 µg/mL (≈ 78.3 to 157 µM) | 16 to 32 µg/mL (≈ 78.3 to 157 µM) | 
13 | Cc1cc(C)n(-c2cc(O)ccc2O)n1 [Example 16, 2-(3,5-Dimethyl-1H-pyrazol-1-yl)benzene-1,4-diol] | 16 to 32 µg/mL (≈ 78.3 to 157 µM) | > 64 µg/mL | 
14 | CCc1c(C)nn(-c2ccccc2O)c1C [Example 17, 2-(4-Ethyl-3,5-dimethyl-1H-pyrazol-1-yl)phenol] | ≤ 1 µg/mL | ≤ 2 µg/mL | 
15 | Cc1nn(-c2ccc(F)cc2O)c(C)c1C [Example 18, 5-Fluoro-2-(3,4,5-trimethyl-1H-pyrazol-1-yl)phenol] | 2 to 8 µg/mL (≈ 9.08 to 36.3 µM) | 4 to 16 µg/mL (≈ 18.2 to 72.6 µM) | 
16 | Cc1nn(-c2cc(O)ccc2O)c(C)c1Cl [Example 19, 2-(4-Chloro-3,5-dimethyl-1H-pyrazol-1-yl)benzene-1,4-diol] | 16 to 32 µg/mL (≈ 67 to 134 µM) | 16 to 32 µg/mL (≈ 67 to 134 µM) | 
17 | Cc1nn(-c2cc(F)ccc2O)c(C)c1C [Example 20, 4-Fluoro-2-(3,4,5-trimethyl-1H-pyrazol-1-yl)phenol] | 16 to 32 µg/mL (≈ 72.6 to 145 µM) | 32 to 64 µg/mL (≈ 145 to 291 µM) | 
18 | Cc1nn(-c2ccc(F)cc2O)c(C)c1Cl [Example 21, 2-(4-Chloro-3,5-dimethyl-1H-pyrazol-1-yl)-5-fluoro phenol] | ≤ 1 µg/mL | 4 to 16 µg/mL (≈ 16.6 to 66.5 µM) | 
19 | CCOC(=O)c1c(C)nn(-c2ccccc2O)c1C [Example 22, Ethyl 1-(2-hydroxyphenyl)-3,5-dimethyl-1H-pyrazol-4-carboxylate] | 16 to 32 µg/mL (≈ 61.5 to 123 µM) | 32 to 64 µg/mL (≈ 123 to 246 µM) | 
20 | COC(=O)CCc1c(C)nn(-c2ccccc2O)c1C [Example 23, Methyl 3-(1-(2-hydroxyphenyl)-3,5-dimethyl-1H-pyrazol-4-yl)propanoate] | 16 to 32 µg/mL (≈ 58.3 to 117 µM) | 32 to 64 µg/mL (≈ 117 to 233 µM) | 
21 | CCCCc1c(C)nn(-c2ccccc2O)c1C [Example 24, 2-(4-Butyl-3,5-dimethyl-1H-pyrazol-1-yl)phenol] | ≤ 1 µg/mL | 16 to 32 µg/mL (≈ 65.5 to 131 µM) | 
22 | Cc1cc(C)n(-c2ccc(F)cc2O)n1 [Example 25, 2-(3,5-Dimethyl-1H-pyrazol-1-yl)-5-fluorophenol] | 2 to 8 µg/mL (≈ 9.7 to 38.8 µM) | 4 to 16 µg/mL (≈ 19.4 to 77.6 µM) | 
23 | Cc1cc(C)n(-c2ccc(Cl)cc2O)n1 [Example 26, 5-Chloro-2-(3,5-dimethyl-1H-pyrazol-1-yl)phenol] | ≤ 1 µg/mL | ≤ 2 µg/mL | 

Row | SMILES | MIC [1] | MIC (T. rubrum ATCC10218) | inhibition of growth at 32 µg/mL [1]
24 | Cc1cc(C)n(-c2ccc([N+](=O)[O-])cc2O)n1 [Example 28, 2-(3,5-Dimethyl-1H-pyrazol-1-yl)-5-nitrophenol] | 2 to 8 µg/mL (≈ 8.58 to 34.3 µM) | 16 to 32 µg/mL (≈ 68.6 to 137 µM) | 
25 | Cc1nn(-c2ccc(Cl)cc2O)c(C)c1C [Example 30, 5-Chloro-2-(3,4,5-trimethyl-1H-pyrazol-1-yl)phenol] | ≤ 1 µg/mL | ≤ 2 µg/mL | 
26 | Cc1cc(C)n(-c2ccc(N)cc2O)n1 [Example 31, 5-Amino-2-(3,5-dimethyl-1H-pyrazol-1-yl)phenol] | 2 to 8 µg/mL (≈ 9.84 to 39.4 µM) | 4 to 16 µg/mL (≈ 19.7 to 78.7 µM) | 
27 | Cc1nn(-c2ccc([N+](=O)[O-])cc2O)c(C)c1C [Example 32, 5-Nitro-2-(3,4,5-trimethyl-1H-pyrazol-1-yl)phenol] | 2 to 8 µg/mL (≈ 8.09 to 32.4 µM) | 4 to 16 µg/mL (≈ 16.2 to 64.7 µM) | 
28 | Cc1cc(C)n(-c2ccc(O)cc2O)n1 [Example 33, 4-(3,5-Dimethyl-1H-pyrazol-1-yl)benzene-1,3-diol] | 2 to 8 µg/mL (≈ 9.79 to 39.2 µM) | ≤ 2 µg/mL | 
29 | Cc1nn(-c2ccc(N)cc2O)c(C)c1C [Example 34, 5-Amino-2-(3,4,5-trimethyl-1H-pyrazol-1-yl)phenol] | 2 to 8 µg/mL (≈ 9.21 to 36.8 µM) | 4 to 16 µg/mL (≈ 18.4 to 73.6 µM) | 
30 | COC(=O)c1ccc(-n2nc(C)cc2C)c(O)c1 [Example 35, Methyl 4-(3,5-dimethyl-1H-pyrazol-1-yl)-3-hydroxybenzene carboxylate] | 16 to 32 µg/mL (≈ 65 to 130 µM) | 16 to 32 µg/mL (≈ 65 to 130 µM) | 
31 | Cc1cc(C)n(-c2c(N)cccc2O)n1 [Example 36, 3-Amino-2-(3,5-dimethyl-1H-pyrazol-1-yl)phenol] |  | 32 to 64 µg/mL (≈ 157 to 315 µM) | < 50%
32 | Cc1cc(C)n(-c2ccc(C(=O)O)cc2O)n1 [Example 37, 4-(3,5-Dimethyl-1H-pyrazol-1-yl)-3-hydroxybenzene carboxylic acid] | 2 to 8 µg/mL (≈ 8.61 to 34.4 µM) | 4 to 16 µg/mL (≈ 17.2 to 68.9 µM) | 
33 | Cc1cc(C)n(-c2ccc(C(=O)N(C)C)cc2O)n1 [Example 38, 4-(3,5-Dimethyl-1H-pyrazol-1-yl)-3-hydroxy-N,N-dimethylbenzamide] | 16 to 32 µg/mL (≈ 61.7 to 123 µM) | 4 to 16 µg/mL (≈ 15.4 to 61.7 µM) | 
34 | Cc1nn(-c2ccc(C(=O)O)cc2O)c(C)c1C [Example 40, 3-Hydroxy-4-(3,4,5-trimethyl-1H-pyrazol-1-yl)benzene carboxylic acid] |  | 32 to 64 µg/mL (≈ 130 to 260 µM) | < 50%
35 | Cc1nn(-c2ccc(C(N)=O)cc2O)c(C)c1C [Example 41, 3-Hydroxy-4-(3,4,5-trimethyl-1H-pyrazol-1-yl)benzamide] |  | 32 to 64 µg/mL (≈ 130 to 261 µM) | 50 to 80%
36 | Cc1nn(-c2ccc(C(N)=O)cc2O)c(C)c1Cl [Example 42, 4-(4-Chloro-3,5-dimethyl-1H-pyrazol-1-yl)-3-hydroxybenzamide] | 16 to 32 µg/mL (≈ 60.2 to 120 µM) | 32 to 64 µg/mL (≈ 120 to 241 µM) | 
37 | Cc1cc(C)n(-c2c(O)cccc2O)n1 [Example 43, 2-(3,5-Dimethyl-1H-pyrazol-1-yl)benzene-1,3-diol] |  | 32 to 64 µg/mL (≈ 157 to 313 µM) | < 50%
38 | Cc1ccc(-n2nc(C)cc2C)c(O)c1 [Example 44, 2-(3,5-Dimethyl-1H-pyrazol-1-yl)-5-methylphenol] | ≤ 1 µg/mL | ≤ 2 µg/mL | 
39 | COc1ccc(-n2nc(C)cc2C)c(O)c1 [Example 45, 2-(3,5-Dimethyl-1H-pyrazol-1-yl)-5-methoxyphenol] | ≤ 1 µg/mL | ≤ 2 µg/mL | 
40 | Cc1cc(C)n(-c2c(C)cccc2O)n1 [Example 46, 2-(3,5-Dimethyl-1H-pyrazol-1-yl)-3-methylphenol] |  | 32 to 64 µg/mL (≈ 158 to 316 µM) | < 50%
41 | Cc1cc(C)n(-c2ccc(CO)cc2O)n1 [Example 47, 2-(3,5-Dimethyl-1H-pyrazol-1-yl)-5-hydroxymethylphenol] | 2 to 8 µg/mL (≈ 9.16 to 36.7 µM) | 4 to 16 µg/mL (≈ 18.3 to 73.3 µM) | 
42 | CNc1ccc(-n2nc(C)cc2C)c(O)c1 [Example 48, 2-(3,5-Dimethyl-1H-pyrazol-1-yl)-5-methylaminophenol] | 2 to 8 µg/mL (≈ 9.21 to 36.8 µM) | 4 to 16 µg/mL (≈ 18.4 to 73.6 µM) | 
43 | Cc1ccc(O)c(-n2nc(C)cc2C)c1 [Example 49, 2-(3,5-Dimethyl-1H-pyrazol-1-yl)-4-methylphenol] |  | 32 to 64 µg/mL (≈ 158 to 316 µM) | < 50%
44 | Cc1cc(C)n(-c2ccc(C(F)(F)F)cc2O)n1 [Example 50, 2-(3,5-Dimethyl-1H-pyrazol-1-yl)-5-trifluoromethylphenol] | 2 to 8 µg/mL (≈ 7.81 to 31.2 µM) | 4 to 16 µg/mL (≈ 15.6 to 62.4 µM) | 
45 | Cc1cc(C)n(-c2cccc(C)c2O)n1 [Example 51, 2-(3,5-dimethyl-1H-pyrazol-1-yl)-6-methylphenol] |  | 32 to 64 µg/mL (≈ 158 to 316 µM) | < 50%
